Laboratory results taken from patent US7220822B2, “CD28 mimetics for blocking T cell mediated immune reactions” (The Ohio State University, priority 2000, dated 2007).
Where two headings read alike, the source gives them in different places. Square brackets hold non-standard residues; d marks the D form. Peptide text beside a SMILES is read from it.

Experiments:
CD4+Vβ8.2+ spleen cells = assay: Apoptosis (TUNEL, flow cytometry) of antigen-stimulated CD4+Vβ8.2+ spleen cells in vitro; assay type: cell-based, mouse; conditions: 150 μM peptide, data not shown
Experimental: To investigate whether the observed decrease in proliferative responses following treatment with CD28 peptides is a result of cell loss, cell death was measured by enzymatic in-situ labeling. Apoptotic cells among MBP NAc1-11 stimulated TCR Vβ 8.2+ CD4+ T cells were detected by staining with FITC labeled Tdt (terminal deoxynucleotidyl transferase). Cells incubated in DNAse served as positive control.
CD4+ T cells from pooled lymph nodes and spleen from B10.PL TCR Vβ 8.2 Vα 4 transgenic mice were cultured in RPMI 1640 in a 96 well round-bottom plate, essentially under the conditions specified for proliferation assays. Cells were harvested at the end of 48 hours and apoptotic cells among TCR Vβ 8.2+ CD4+ T cells were detected by the TUNEL method. Briefly, after washing twice with PBS containing 1-% rat serum, the cells were stained with PE labeled anti-mouseVβ 8.1,8.2 TCR (clone MR5-2) (Pharmingen, San Diego, Calif.) for 30 min at room temperature and washed. […] After washing, the DNA strand breaks in the cells were detected by incubating the cells with fluorescein labeled TUNEL mix (terminal deoxynucleotidyl transferase (Tdt)) for 60 min at 37° C. using an in situ cell death detection kit (Boehringer Mannheim, Mannheim, Germany) according to the manufacturer's recommendations. […] Cells were then washed with PBS and analyzed by flow cytometry.

CD80-Ig = biological target: T1, CD80-Ig (Homo sapiens, UniProt P33681); assay: Competitive kinetic analysis (SPR): CD28 peptides versus CD28-Ig for binding indirectly immobilized CD80-Ig; conditions: for kd: competition with CD28-Ig 3.2 μM
T1 construct: extracellular domain of CD80 fused with the constant region of mouse IgG1 heavy chain
T1 sequence (P33681 35-242 limits assumed, other chains not shown): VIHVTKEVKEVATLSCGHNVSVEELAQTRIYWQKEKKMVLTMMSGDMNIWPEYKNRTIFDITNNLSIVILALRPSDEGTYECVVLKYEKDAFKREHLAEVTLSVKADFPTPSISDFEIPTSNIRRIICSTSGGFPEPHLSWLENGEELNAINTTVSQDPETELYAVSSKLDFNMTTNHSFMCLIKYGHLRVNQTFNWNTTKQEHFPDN
Experimental: Competitive kinetic analysis was performed as described previously using purified anti-mouse IgG1 Fc (31437zz) (Pierce City, Ill., USA) to indirectly immobilize CD80-Ig (39). […] The binding kinetics of CD28-Ig was assessed by injecting a range of CD28-Ig concentration (187 nM to 12 μM) over immobilized CD80-Ig (324 RU) for 5 min at 10 μl/min. CD80-Ig was regenerated using a 3 min injection of 5 mM NaOH. For competitive kinetic analysis, 100 μl of a 3.2 μM CD28-Ig solution was mixed with 100 μl of EL CD28 or RI CD28 peptides (6.18 μM to 503 μM in HBS-EP) and injected over the surface of CD80-Ig as secondary analyte for 5 min with a flow rate of 10 μl/min. The CD80-Ig surface was regenerated between injections by washing for 3 min with 5 mM NaOH. The mixtures were also injected on an empty flow cell with no protein immobilized, as a control.
In competitive kinetic experiments, the observed response R is the sum of the contributions of R1 and R2 from the two analytes. The binding data was analyzed using the equation R(t)=R1 (CD28-Ig)+R2 (CD28-P) (3) where • R1=Rmaxka1C1/kf−ks{k1(kf−ks)/kf*ks+k1−kf/kf*e^−kf^(t−t0)−k1ks/ks*e^−ks(t−t0)} • R2=RmaxMW1ka2C2/MW2*kf−ks[{k2(kf−ks)}/kf*ks}+(k2−kf/kf)*e^−kf^(t−t0)−(k2−ks/ks)*e^−ks(t−t0) • kf=0.5{ktq+k2+π(ka1−k2)^2+4kf1kCD28PC1C2} • ks=0.5{kt1+k2−π(kt1−k2)^2+4k1k2C1C2} • kt CD28-Ig=ka1C+kd1 • kt2=ka2C2+kd2
When competitive data were analyzed, ka, kd and Rmax values obtained for the interaction between CD80-Ig and CD28-Ig were used as non floating parameters and the rate constants for CD28 peptides were calculated from the injection phase data using the expanded equation 3.
FIGS. 4a and 4b are representative sensograms obtained from the competitive experiments using the CD28-Ig and ELCD28 and RICD28 APR respectively. The top curve is the interaction of CD28-Ig (3.2 μM) alone with the CD80-Ig. The response level gradually goes down as the concentration of the specified CD28 peptide increases. […] However, the dissociation constant varied with varying concentration of EL CD28 peptide mimetic(Table 3).

[1] = read-out: ka, competition with CD28-Ig 3.2 μM, peptide C 0.125 × 10^5 nM
[2] = read-out: ka, competition with CD28-Ig 3.2 μM, peptide C 0.25 × 10^5 nM
[3] = read-out: ka, competition with CD28-Ig 3.2 μM, peptide C 0.5 × 10^5 nM
[4] = read-out: ka, competition with CD28-Ig 3.2 μM, peptide C 1 × 10^5 nM
[5] = read-out: ka, competition with CD28-Ig 3.2 μM, peptide C 2 × 10^5 nM
[6] = read-out: ka, competition with CD28-Ig 3.2 μM, peptide C 3 × 10^5 nM

| SMILES | apoptosis (in words) (CD4+Vβ8.2+ spleen cells) | kd (CD80-Ig; peptide C 0.125 × 10^5 nM) [s⁻¹] | kd (CD80-Ig; peptide C 0.25 × 10^5 nM) [s⁻¹] | kd (CD80-Ig; peptide C 0.5 × 10^5 nM) [s⁻¹] | kd (CD80-Ig; peptide C 1 × 10^5 nM) [s⁻¹] | kd (CD80-Ig; peptide C 2 × 10^5 nM) [s⁻¹] | kd (CD80-Ig; peptide C 3 × 10^5 nM) [s⁻¹] | kon (CD80-Ig; [1]) [M⁻¹ s⁻¹] | kon (CD80-Ig; [2]) [M⁻¹ s⁻¹] | kon (CD80-Ig; [3]) [M⁻¹ s⁻¹] | kon (CD80-Ig; [4]) [M⁻¹ s⁻¹] | kon (CD80-Ig; [5]) [M⁻¹ s⁻¹] | kon (CD80-Ig; [6]) [M⁻¹ s⁻¹] |
| --- | --- | --- | --- | --- | --- | --- | --- | --- | --- | --- | --- | --- | --- |
| CC[C@@H](C)[C@@H](NC(C)=O)C(=O)N[C@@H](C(=O)NCC(=O)N[C@H](CC(N)=O)C(=O)N[C@H](CO)C(=O)N[C@H](CCCNC(=N)N)C(=O)N[C@H](CCC(=O)O)C(=O)N[C@H](CC(N)=O)C(=O)N[C@H](CC(=O)O)C(=O)N[C@H](CC(C)C)C(=O)N[C@H](Cc1ccc(O)cc1)C(=O)N1CCC[C@@H]1C(=O)N1CCC[C@@H]1C(=O)N1CCC[C@@H]1C(=O)N[C@H](Cc1ccc(O)cc1)C(=O)N[C@H](CCSC)C(=O)N[C@H](Cc1ccccc1)C(=O)N[C@H](CCC(=O)O)C(=O)N[C@@H](C(=O)N[C@H](CCCCN)C(N)=O)[C@H](C)CC)[C@H](C)O [RI CD28] (Ac-[dI][dT]G[dN][dS][dR][dE][dN][dD][dL][dY][dP][dP][dP][dY][dM][dF][dE][dI][dK]-NH2) | increase in apoptosis | 0.177 | 0.0738 | 0.275 | 0.142 | 0.0245 | 0.0206 | 105000 | 54400 | 92400 | 94700 | 23500 | 10700 |
| CC[C@H](C)[C@H](NC(=O)[C@@H](NC(=O)CNC(=O)[C@H](CC(N)=O)NC(=O)[C@H](CO)NC(=O)[C@H](CCCNC(=N)N)NC(=O)[C@H](CCC(=O)O)NC(=O)[C@H](CC(N)=O)NC(=O)[C@H](CC(=O)O)NC(=O)[C@H](CC(C)C)NC(=O)[C@H](Cc1ccc(O)cc1)NC(=O)[C@@H]1CCCN1C(=O)[C@@H]1CCCN1C(=O)[C@@H]1CCCN1C(=O)[C@H](Cc1ccc(O)cc1)NC(=O)[C@H](CCSC)NC(=O)[C@H](Cc1ccccc1)NC(=O)[C@H](CCC(=O)O)NC(=O)[C@@H](NC(=O)[C@H](CCCCN)NC(C)=O)[C@@H](C)CC)[C@@H](C)O)C(N)=O [EL CD28] (Ac-KIEFMYPPPYLDNERSNGTI-NH2) | increase in apoptosis | 0.101 | 0.0195 | 0.316 | 0.0803 | 0.0862 | 6.89 | 73400 | 3360 | 63200 | 31600 | 55100 | 2.36e+06 |
